Source: patent US11771711B2, “Substituted pyridines as DNMT1 inhibitors” (GlaxoSmithKline Intellectual Property Development Limited, priority 2021, dated 2023)
Values after ≈ are worked out from the molar mass of the structure shown.

How the values were obtained:
[1] = biological target: Full-length human DNMT1 (Homo sapiens (Human), UniProt P26358); assay: DNMT1 Scintillation Proximity Assay (SPA) - Assay A; assay type: biochemical; conditions: footnote a: DNMT1 full length
Experimental: DNMT1 Scintillation Proximity Assay (SPA)—Assay A (Full-Length Human DNMT1)
This assay used Scintillation Proximity technology in a signal increase format to evaluate the potency of compounds. Full-length human DNMT1, hemi-methylated DNA duplex*, and tritiated SAM were utilized to monitor activity. Assay plate creation consisted of the following parameters: 500 nL of an 11 pt, 3-fold serial dilution of compound was stamped into a 96 well Costar plate (#3884). Assay buffer mix was made on the day of assay consisting of: 20 mM Tris pH 7.5, 1 mM DTT, 1 mM EDTA, and 5% glycerol. A 2× enzyme mix was then prepared consisting of 30 nM DNMT1 protein (full length human DNMT, made in house) in assay buffer. The 2× substrate mix was made last, and consisted of 160 nM 40mer hemi-methylated DNA*, 0.48 μM ^3H-SAM, and 2.92 μM cold SAM in assay buffer (^3H-SAM is added last). The quench (1 mM SAH) was made in bulk and frozen at −20 until the time of use. Ten uL of the 2× substrate mix was added to the entire plate using a multichannel electronic pipette. Plate was shaken for at least 10s between additions to ensure mixing. Next, 20 uL of 2× quench mix was added to column 12 using a multichannel pipette (shake plate). Using a multichannel electronic pipette, 10 uL of 2× enzyme mix was added to the full plate starting with column […] (column 12 last to avoid pre-quench carryover). Plates were incubated on the shaker for 30 minutes with the plate covered. At the end of the incubation period, 20 uL of quench mix were added to all wells except column 12 (shake plate) followed by the addition of 20 uL of 3 mg/mL PerkinElmer PEI PVT SPA Beads (Cat. #RPNQ0097) diluted in DNAse free water and allowed to shake for at least 30 minutes. Plates were sealed with a clear seal and centrifuged at 500 rpm for 1 min. Plates were read on a MicroBeta (Perkin Elmer, read for ^3H (1 min/well).
Microsoft Excel was used to analyze the data up to Vi/Vo and GraFit was used to fit the data. Responses were normalized to the uninhibited (DMSO) and pre-quenched controls within each plate. Dose-response curves were analyzed using a three-parameter logistic fit with Ymin constrained to 0 and results were expressed as IC50 values.
Final assay conditions: 20 mM Tris (Hampton Research—HR-937-06), pH 7.5, 1 mM DTT (Invitrogen—P2325), 1 mM EDTA (Invitrogen—AM9260G), 5% Glycerol (Teknova—G1796), 0.02% Pluronic F127 (Life Technologies—P6866), 15 nM DNMT1 (full length human DNMT1—GSK made in-house), 240 nM ^3H-SAM (PerkinElmer—NET155H001MC), 1460 nM cold SAM (New England Biolabs—B9003S) and 80 nM 40-mer hemi-methylated DNA Oligonucleotide (Integrated DNA Technologies—custom), 1 mM SAH (Sigma A9384), and 1 mg/mL PEI PVT SPA Beads (Perkin Elmer RPNQ0097) resuspended in water.

[2] = physchem; conditions: FaSSIF buffer, pH 6.5, fassif, thermodynamic from solid
Experimental: Solubility of Solid Compounds in Fasted Simulated Intestinal Fluid
The solubility of solid compounds in Fasted Simulated Intestinal Fluid (FaSSIF) was determined at pH 6.5 after 4 hour equilibration at room temperature (using procedures described in Sou, T.; Bergström, C. A. S. Automated assays for thermodynamic (equilibrium) solubility determination. Drug Discovery Today: Technologies 2018, 27, 11-19). 1 ml of FaSSIF buffer (3 mM Sodium taurocholate, 0.75 mM lecithin in sodium phosphate buffer at pH6.5) was added to manually weighed 1 mg of solid compound in a 4 ml vial. The resulting suspension was shaken at 900 rpm for 4 hours at room temperature and then transferred to a Multiscreen HTS, 96-well solubility filter plate to separate the residual solid and the filtrate. Quantification of the compound concentration in the filtrate was performed by HPLC-UV using single point calibration of a known concentration of the compound in DMSO. […] The dynamic range of the assay was 1-1000 μg/ml.

[3] = Rat pharmacokinetic study (oral bioavailability); assay type: in vivo; conditions: blood, PO gavage vs 60 minute IV infusion, 5% DMA/15% Solutol
Experimental: Pharmacokinetic Studies: All studies were conducted in accordance with the GSK Policy on the Care, Welfare and Treatment of Laboratory Animals and were reviewed either by the Institutional Animal Care and Use Committee at GSK or by the ethical review process at the institution where the studies were performed. Pharmacokinetic studies for example 2 were conducted using non-fasted, Male Wistar Han rats, n=3/dose route and for reference compound 4, non-fasted male Sprague-Dawley rats, n=2/dose route in a non-crossover design. Compounds were prepared as solutions in 5% DMA/15% Solutol and administered as a 60 minute IV infusion and PO gavage. Blood samples were collected serially at multiple time points from pre-dose through 24 hours post dose and the analytes were quantified by LC/MS/MS. The percent bioavailability was calculated by comparison of the dose normalized Area Under the Curve (DNAUC) obtained from PO dosing with the DNAUC from the IV route [(PO DNAUC/IV DNAUC)*100].

[4] = biological target: Human truncated DNMT1(601-1600) (Homo sapiens (Human), UniProt P26358); assay: DNMT1 Scintillation Proximity Assay (SPA) - Assay B; assay type: biochemical; conditions: footnote b: DNMT1 truncate
Human truncated DNMT1(601-1600), sequence (P26358 601-1600): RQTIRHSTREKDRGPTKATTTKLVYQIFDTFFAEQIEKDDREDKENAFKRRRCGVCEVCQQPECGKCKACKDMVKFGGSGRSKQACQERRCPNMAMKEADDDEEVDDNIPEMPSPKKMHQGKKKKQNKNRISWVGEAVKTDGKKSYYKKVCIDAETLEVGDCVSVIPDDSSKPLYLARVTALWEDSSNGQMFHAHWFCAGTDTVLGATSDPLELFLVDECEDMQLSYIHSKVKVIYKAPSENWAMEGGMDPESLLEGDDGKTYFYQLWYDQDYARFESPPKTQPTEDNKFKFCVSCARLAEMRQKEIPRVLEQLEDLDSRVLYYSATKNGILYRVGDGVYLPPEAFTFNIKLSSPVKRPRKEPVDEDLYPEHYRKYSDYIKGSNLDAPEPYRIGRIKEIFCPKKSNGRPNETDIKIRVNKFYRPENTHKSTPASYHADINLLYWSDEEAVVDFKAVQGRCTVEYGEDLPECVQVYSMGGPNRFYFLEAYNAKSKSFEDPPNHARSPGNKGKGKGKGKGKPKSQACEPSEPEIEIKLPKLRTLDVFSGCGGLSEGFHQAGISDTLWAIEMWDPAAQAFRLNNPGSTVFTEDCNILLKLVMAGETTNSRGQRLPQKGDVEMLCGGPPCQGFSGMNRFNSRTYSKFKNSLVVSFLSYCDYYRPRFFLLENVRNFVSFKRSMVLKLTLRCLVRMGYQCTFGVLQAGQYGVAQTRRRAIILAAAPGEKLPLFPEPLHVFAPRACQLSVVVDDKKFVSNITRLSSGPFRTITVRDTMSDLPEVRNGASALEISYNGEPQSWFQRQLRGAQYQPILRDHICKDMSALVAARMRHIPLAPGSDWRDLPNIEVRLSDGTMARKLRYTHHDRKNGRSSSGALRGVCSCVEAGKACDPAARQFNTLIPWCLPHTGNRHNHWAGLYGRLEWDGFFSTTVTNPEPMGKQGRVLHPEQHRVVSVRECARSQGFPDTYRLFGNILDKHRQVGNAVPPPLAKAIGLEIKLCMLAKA
Experimental: DNMT1 Scintillation Proximity Assay (SPA)—Assay B (Human Truncated DNMT1(601-1600))
This assay used Scintillation Proximity technology in a signal increase format to evaluate the potency of compounds. Human truncated DNMT1(601-1600), single hemi-methylated CpG site oligonucleotide, and Tritiated SAM were utilized to monitor activity. Assay plate creation consisted of the following parameters: 10 mM Compounds (11-point, 3-fold serial dilution) were stamped at 100 nL per well (100× in 100% DMSO) into a Griener white LV 384 well plate (#784075). Assay buffer mix was made on the day of assay consisting of: base buffer: (500 mM Hepes, ph 8, 1M MgCl2 made in advance, stored at room temp as a stock), 10% NP40-Surfact AMPS, 10% Ultrapure BSA 50 mg/ml, and 2M DTT (DL-Dithiolthreitol). The 2× enzyme mix was then prepared consisting of: DNMT1 protein (truncate human DNMT1—601-1600, made in house at 16.876 uM stock concentration) added to the assay buffer mix. […] Plates were read on a Viewlux (PerkinElmer, 613 nm emission filter, 300 sec dual-exposure, (10 min. total read time)).
The Abase database was used to analyze the data. […] Dose-response curves were analyzed using a four-parameter logistic fit and results were expressed as pIC50 values. […]

[5] = internal standards tested alongside in FaSSIF assay; cited from earlier work

Full-length human DNMT1, sequence (P26358 whole entry): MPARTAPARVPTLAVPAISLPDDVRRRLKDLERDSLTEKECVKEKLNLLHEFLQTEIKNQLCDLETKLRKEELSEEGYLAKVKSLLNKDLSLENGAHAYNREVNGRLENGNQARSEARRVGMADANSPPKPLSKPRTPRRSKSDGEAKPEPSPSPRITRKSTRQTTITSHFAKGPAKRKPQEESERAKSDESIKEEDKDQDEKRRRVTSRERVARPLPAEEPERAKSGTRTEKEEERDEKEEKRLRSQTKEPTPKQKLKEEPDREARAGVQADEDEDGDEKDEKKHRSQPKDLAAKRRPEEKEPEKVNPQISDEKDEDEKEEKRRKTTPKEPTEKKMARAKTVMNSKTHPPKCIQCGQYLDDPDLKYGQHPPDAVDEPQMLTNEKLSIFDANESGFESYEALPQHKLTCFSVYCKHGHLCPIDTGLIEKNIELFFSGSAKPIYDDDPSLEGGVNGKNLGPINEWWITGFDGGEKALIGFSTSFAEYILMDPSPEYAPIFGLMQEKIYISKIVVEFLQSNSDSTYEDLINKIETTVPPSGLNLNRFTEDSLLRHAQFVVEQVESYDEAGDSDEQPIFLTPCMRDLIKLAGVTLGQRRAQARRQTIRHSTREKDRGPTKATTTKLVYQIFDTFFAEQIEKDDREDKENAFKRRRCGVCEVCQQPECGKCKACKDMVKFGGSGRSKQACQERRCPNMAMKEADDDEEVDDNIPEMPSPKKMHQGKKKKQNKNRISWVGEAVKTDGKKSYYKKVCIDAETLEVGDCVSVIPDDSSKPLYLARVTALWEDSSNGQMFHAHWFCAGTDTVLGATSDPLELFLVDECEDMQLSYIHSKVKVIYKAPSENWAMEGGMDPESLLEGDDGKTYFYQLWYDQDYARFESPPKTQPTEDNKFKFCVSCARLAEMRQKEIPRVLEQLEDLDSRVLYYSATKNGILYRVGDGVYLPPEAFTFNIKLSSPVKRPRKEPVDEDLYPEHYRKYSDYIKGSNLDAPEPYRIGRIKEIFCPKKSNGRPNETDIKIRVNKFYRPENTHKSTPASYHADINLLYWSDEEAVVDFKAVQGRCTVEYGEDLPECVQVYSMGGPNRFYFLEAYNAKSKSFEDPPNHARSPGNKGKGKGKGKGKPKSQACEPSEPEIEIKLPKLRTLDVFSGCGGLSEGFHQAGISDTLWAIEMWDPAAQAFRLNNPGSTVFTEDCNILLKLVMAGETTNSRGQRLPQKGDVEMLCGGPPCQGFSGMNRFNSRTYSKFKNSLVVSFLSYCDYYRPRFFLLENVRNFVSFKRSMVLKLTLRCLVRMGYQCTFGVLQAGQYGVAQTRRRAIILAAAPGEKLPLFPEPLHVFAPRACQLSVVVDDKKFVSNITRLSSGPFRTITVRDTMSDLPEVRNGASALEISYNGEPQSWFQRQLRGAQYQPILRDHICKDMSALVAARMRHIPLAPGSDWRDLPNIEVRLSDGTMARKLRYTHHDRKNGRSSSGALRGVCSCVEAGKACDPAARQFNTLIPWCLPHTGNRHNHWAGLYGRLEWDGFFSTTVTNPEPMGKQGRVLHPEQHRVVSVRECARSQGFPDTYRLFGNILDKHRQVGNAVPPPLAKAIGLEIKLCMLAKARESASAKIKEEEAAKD

Row | SMILES | IC50 [1] [nM] | solubility at 4 h [2] [µg/mL] | other results
1 | CCc1c(C#N)c(SC(C(N)=O)c2ccc(OS(C)(=O)=O)cc2)nc(N(C)C)c1C#N (racemic) [Example 4, 4-(2-amino-1-((3,5-dicyano-6-(dimethylamino)-4-ethylpyridin-2-yl)thio)-2-oxoethyl)phenyl methanesulfonate] | 107 | < 1 | 
2 | CCc1c(C#N)c(S[C@@H](C(N)=O)c2ccc(OS(C)(=O)=O)cc2)nc(N(C)C)c1C#N [Example 2, (R)-4-(2-amino-1-((3,5-dicyano-6-(dimethylamino)-4-ethylpyridin-2-yl)thio)-2-oxoethyl)phenyl methanesulfonate] | 54 | 1 | bioavailability ([3]; non-fasted male Wistar Han rats, n=3/dose route): 40%
3 | CCc1c(C#N)c(SC(C(=O)NP(=O)(O)O)c2ccc(OS(C)(=O)=O)cc2)nc(N(C)C)c1C#N (stereo not drawn) [Example 3, (2-((3,5-dicyano-6-(dimethylamino)-4-ethylpyridin-2-yl)thio)-2-(4-((methylsulfonyl)oxy)phenyl)acetyl)phosphoramidic acid] | 5210 | > 1000 | 
4 | CCc1c(C#N)c(S[C@@H](C(N)=O)c2ccccc2)nc(N(C)C)c1C#N [Reference compound 1, reference compound] |  | < 1 | 
5 | CCc1c(C#N)c(S[C@@H](C(N)=O)c2ccccc2)nc(N2CC[C@H](O)C2)c1C#N [Reference compound 2, reference compound] | 156 | 2.7 (≈ 6.63 µM) | 
6 | CCc1c(C#N)c(SC(C(N)=O)c2ccc(Cl)cc2)nc(N(C)C)c1C#N (stereo not drawn) [Reference compound 3] |  |  | IC50 [4]: 631 nM
7 | CCc1c(C#N)c(S[C@@H](C(N)=O)c2ccc(OC)cc2)nc(N2CC[C@H](O)C2)c1C#N [Reference compound 4, reference compound] |  | 4 (≈ 9.14 µM) | IC50 [4]: 79 nM; bioavailability ([3]; non-fasted male Sprague-Dawley rats, n=2/dose route): 6.1%
8 | CC(=O)CC(c1ccccc1)c1c(O)c2ccccc2oc1=O (stereo not drawn) [Warfarin] |  |  | known solubility of internal standards [5]: 140 µg/mL
